This is an account of results in patent publication US20240262819A1, “NOVEL COMPOUNDS HAVING INHIBITORY ACTIVITY AGAINST GLUCOSYLCERAMIDE SYNTHASE OR PHARMACEUTICALLY ACCEPTABLE SALT THEREOF, PROCESSES FOR PREPARING THE SAME, AND PHARMACEUTICAL COMPOSITIONS COMPRISING THE SAME” (YUHAN CORPORATION, priority 2021, published 2024).

For data set [1], the target named is glucosylceramide synthase (GCS) (Homo sapiens (Human), UniProt Q16739). Nature of the data set: Evaluation of inhibitory activities against GCS (A549 cell lysate, NBD C6-ceramide, HPLC). Format: biochemical. The procedure, abridged: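 GCS activity in A549 cell lysate (50 mM HEPES, pH 7.3) with NBD C6-ceramide, reacted 90 min at 37 °C. Lipids were chloroform/methanol-extracted and separated by normal-phase HPLC with fluorescence detection (ex 470/em 530 nm). GlcCer fraction of peak area was normalized between DMSO and ibiglustat, and IC50 obtained by curve fitting.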
Chain of glucosylceramide synthase (GCS) (Q16739 whole entry): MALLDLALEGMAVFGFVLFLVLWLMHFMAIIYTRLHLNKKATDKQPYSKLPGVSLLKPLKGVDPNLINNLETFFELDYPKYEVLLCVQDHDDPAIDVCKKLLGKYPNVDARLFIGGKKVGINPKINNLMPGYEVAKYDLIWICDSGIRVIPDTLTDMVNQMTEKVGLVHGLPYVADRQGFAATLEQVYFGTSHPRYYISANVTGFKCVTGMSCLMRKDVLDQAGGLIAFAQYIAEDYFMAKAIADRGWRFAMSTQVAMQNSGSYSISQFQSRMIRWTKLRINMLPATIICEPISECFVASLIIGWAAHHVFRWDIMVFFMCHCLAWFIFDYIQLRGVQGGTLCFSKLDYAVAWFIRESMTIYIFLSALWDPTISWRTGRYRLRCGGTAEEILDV

Data set [2] deals with GM1 production in Jurkat cells. Nature of the data set: cells. The data set is classed as cell-based.
Data set [3] in a line: Evaluation of blood-brain barrier (BBB) permeability through oral administration. The data set is classed as in vivo, mice. The conditions noted are these: mice, oral, dose 30 mg/kg, 4 hr; for Kp at 4 h / concentration at 4 h: mouse, in vivo; for Kp at 4 h: read-out: Mean brain-plasma drug ratio at 4 hr. The essentials: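 Mice dosed orally at 10 or 30 mg/10 ml/kg, suspended in 0.5% methyl cellulose with 0.2% Tween 80. Plasma and forebrain homogenate taken 4 hours post-dose, drug measured by LC-MS/MS; brain/plasma ratio calculated from tissue concentrations.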

The mark [4] stands for this setting: read-out: Mean drug concentrations in brain tissue at 4 hr.
[5] abbreviates: read-out: Mean drug concentrations in plasma at 4 hr.
[6] abbreviates: % GCS activity, A549 cell lysate, 37° C. for 90 minutes, read-out: IC50.

pIC50: −log10 of the molar value. Like-named read-outs stand apart in the source and are kept apart here.

With `Cc1cc(-c2ccc3c(c2)CC(C)(C)[C@H]3NC(=O)O[C@@H]2CN3CCC2CC3)ccc1OC(C)C` [Example 34, (S)-quinuclidin-3-yl((R)-5-(4-isopropoxy-3-methylphenyl)-2,2-dimethyl-2,3-dihydro-1H-inden-1-yl)carbamate], the pIC50 was 8.88 in data set [1] and 8.64 in data set [2] (Homo sapiens, Jurkat, 72 h). Further, the Kp at 4 h in data set [3] was found to be 14. Besides, the concentration at 4 h in data set [3] (setting [4]) was found to be 10700 ng/g; in data set [3] (setting [5]) it was 767 ng/mL.
For the compound “(S)-quinuclidin-3-yl((R)-6-(2-chloro-4-isopropoxyphenyl)-7-fluoro-2,2-dimethyl-1,2,3,4-tetrahydronaphthalen-1-yl) carbamate [Example 199]”, the pIC50 in data set [1] (setting [6]) was 9.72. In data set [2] (read-out: IC50), the pIC50 is 10.52. In data set [3], the “Mean brain-plasma drug ratio at 4 hr” value worked out at 1.165, the “Mean drug concentrations in brain tissue at 4 hr” value is on record as 2689 ng/g and the “Mean drug concentrations in plasma at 4 hr” value came to 2327.6 ng/mL.
Turning to `CC(C)Oc1ccc(-c2ccc3c(c2)CCC(C)(C)[C@H]3NC(=O)O[C@@H]2CN3CCC2CC3)cc1F` [Example 161, (S)-quinuclidin-3-yl((R)-6-(3-fluoro-4-isopropoxyphenyl)-2,2-dimethyl-1,2,3,4-tetrahydronaphthalen-1-yl)carbamate], the negative-log IC50 (pIC50) in data set [1] was 8.13; in data set [2] (Homo sapiens, Jurkat, 72 h), 8.35. Further, the Kp at 4 h in data set [3] came out at 3.97. The concentration at 4 h came out at 4840 ng/g in data set [3] (setting [4]) and 1240 ng/mL in data set [3] (setting [5]).
For `CCCOc1c(C)cc(-c2cc3c(cc2F)[C@H](NC(=O)O[C@@H]2CN4CCC2CC4)C(C)(C)CC3)cc1C` [Example 181, (S)-quinuclidin-3-yl((R)-6-(3,5-dimethyl-4-propoxyphenyl)-7-fluoro-2,2-dimethyl-1,2,3,4-tetrahydronaphthalen-1-yl)carbamate], in that order: 8.73, 8.15, 1.65, 848 ng/g and 510 ng/mL.
With `CC(C)Oc1ccc(-c2ccc3c(c2)CCC(C)(C)[C@H]3NC(=O)O[C@@H]2CN3CCC2CC3)cc1Cl` [Example 150, (S)-quinuclidin-3-yl((R)-6-(3-chloro-4-isopropoxyphenyl)-2,2-dimethyl-1,2,3,4-tetrahydronaphthalen-1-yl) carbamate], the pIC50 in data set [1] (setting [6]) was 8.90. Besides, in data set [2] (read-out: IC50), the pIC50 was 8.49. In data set [3], the “Mean brain-plasma drug ratio at 4 hr” value is recorded as 1.471, the “Mean drug concentrations in brain tissue at 4 hr” value was found to be 1520.5 ng/g and the “Mean drug concentrations in plasma at 4 hr” value stood at 1065 ng/mL.
Regarding `CCCOc1ccc(-c2cc3c(cc2F)[C@H](NC(=O)O[C@@H]2CN4CCC2CC4)C(C)(C)C3)cc1Cl` [Example 87, (S)-quinuclidin-3-yl((R)-5-(3-chloro-4-propoxyphenyl)-6-fluoro-2,2-dimethyl-2,3-dihydro-1H-inden-1-yl)carbamate], the pIC50 is 9.11 in data set [1] and 7.44 in data set [2] (Homo sapiens, Jurkat, 72 h). Moreover, in data set [3], the Kp at 4 h turned out to be 8.57. The concentration at 4 h in data set [3] (setting [4]) amounted to 972 ng/g; in data set [3] (setting [5]), 114 ng/mL.
For `CC(C)Oc1ccc(-c2cc3c(cc2F)[C@H](NC(=O)O[C@@H]2CN4CCC2CC4)C(C)(C)C3)c(Cl)c1` [Example 92, (S)-quinuclidin-3-yl((R)-5-(2-chloro-4-isopropoxyphenyl)-6-fluoro-2,2-dimethyl-2,3-dihydro-1H-inden-1-yl)carbamate], in that order: 10.15, 8.94, 4.13, 2230 ng/g and 545 ng/mL.
The matching figures for `COc1ccc(-c2cc3c(cc2F)[C@H](NC(=O)O[C@@H]2CN4CCC2CC4)C(C)(C)C3)cc1F` [Example 89, (S)-quinuclidin-3-yl((R)-6-fluoro-5-(3-fluoro-4-methoxyphenyl)-2,2-dimethyl-2,3-dihydro-1H-inden-1-yl)carbamate]: 9.21, 7.36, 5.42, 4040 ng/g and 751 ng/mL.
With `CC(C)Oc1ccc(-c2cc3c(cc2F)[C@H](NC(=O)O[C@@H]2CN4CCC2CC4)C(C)(C)CC3)cc1` [Example 197, (S)-quinuclidin-3-yl((R)-7-fluoro-6-(4-isopropoxyphenyl)-2,2-dimethyl-1,2,3,4-tetrahydronaphthalen-1-yl)carbamate], the negative logarithm of the IC50 (pIC50) in data set [1] is 9.70; in data set [2] (Homo sapiens, Jurkat, 72 h), 9.03. In addition, the Kp at 4 h in data set [3] came to 3.56. Further, the concentration at 4 h is 6690 ng/g in data set [3] (setting [4]) and 1880 ng/mL in data set [3] (setting [5]).
The matching figures for `CCCOc1c(C)cc(-c2ccc3c(c2)CCC(C)(C)[C@H]3NC(=O)O[C@@H]2CN3CCC2CC3)cc1C` [Example 148, (S)-quinuclidin-3-yl((R)-6-(3,5-dimethyl-4-propoxyphenyl)-2,2-dimethyl-1,2,3,4-tetrahydronaphthalen-1-yl)carbamate]: 8.80, 8.05, 1.82, 1680 ng/g and 951 ng/mL.
Consider “(S)-quinuclidin-3-yl((R)-7-fluoro-2,2-dimethyl-6-(4-propoxyphenyl)-1,2,3,4-tetrahydronaphthalen-1-yl) carbamate [Example 177]”, for which the negative logarithm of the IC50 (pIC50) in data set [1] (setting [6]) was 9.60. Also, the pIC50 in data set [2] (read-out: IC50) was 9.37. Moreover, in data set [3], the “Mean brain-plasma drug ratio at 4 hr” value amounted to 5.444, the “Mean drug concentrations in brain tissue at 4 hr” value is on record as 4788.9 ng/g and the “Mean drug concentrations in plasma at 4 hr” value was determined as 880.7 ng/mL.
As for `CC1(C)Cc2cc(-c3ccc(OCC4CC4)c(Cl)c3)ccc2[C@@H]1NC(=O)O[C@@H]1CN2CCC1CC2` [Example 39, (S)-quinuclidin-3-yl((R)-5-(3-chloro-4-(cyclopropylmethoxy)phenyl)-2,2-dimethyl-2,3-dihydro-1H-inden-1-yl)carbamate], the pIC50 is 8.99 in data set [1] and 8.96 in data set [2] (Homo sapiens, Jurkat, 72 h). The Kp at 4 h in data set [3] came to 9.85. Moreover, the concentration at 4 h in data set [3] (setting [4]) was found to be 5510 ng/g; in data set [3] (setting [5]) it was 564 ng/mL.
The matching figures for `CC(C)Oc1ccc(-c2cc3c(cc2F)[C@H](NC(=O)O[C@@H]2CN4CCC2CC4)C(C)(C)CC3)cc1F` [Example 198, (S)-quinuclidin-3-yl((R)-7-fluoro-6-(3-fluoro-4-isopropoxyphenyl)-2,2-dimethyl-1,2,3,4-tetrahydronaphthalen-1-yl)carbamate]: 9.47, 8.49, 3.46, 5120 ng/g and 1480 ng/mL.
For `CC1(C)Cc2cc(-c3ccc(OCC4CC4)cc3Cl)ccc2[C@@H]1NC(=O)O[C@@H]1CN2CCC1CC2` [Example 38, (S)-quinuclidin-3-yl((R)-5-(2-chloro-4-(cyclopropylmethoxy)phenyl)-2,2-dimethyl-2,3-dihydro-1H-inden-1-yl)carbamate], in that order: 10.30, 8.49, 5.6, 3640 ng/g and 670 ng/mL.
For `Cc1ccc(-c2cc3c(cc2F)[C@H](NC(=O)O[C@@H]2CN4CCC2CC4)C(C)(C)C3)cc1Cl` [Example 84, (S)-quinuclidin-3-yl((R)-5-(3-chloro-4-methylphenyl)-6-fluoro-2,2-dimethyl-2,3-dihydro-1H-inden-1-yl)carbamate], in that order: 9.54, 7.76, 7.23, 4940 ng/g and 683 ng/mL.
Regarding `CCc1cccc(-c2ccc3c(c2)CCC(C)(C)[C@H]3NC(=O)O[C@@H]2CN3CCC2CC3)c1` [Example 158, (S)-quinuclidin-3-yl((R)-6-(3-ethylphenyl)-2,2-dimethyl-1,2,3,4-tetrahydronaphthalen-1-yl)carbamate], the pIC50 in data set [1] is 9.35; in data set [2] (Homo sapiens, Jurkat, 72 h), 8.96. The Kp at 4 h in data set [3] was 3.67. Besides, the concentration at 4 h came to 3720 ng/g in data set [3] (setting [4]) and 1020 ng/mL in data set [3] (setting [5]).
Take `Cc1cc(OC(C)C)ccc1-c1ccc2c(c1)CC(C)(C)[C@H]2NC(=O)O[C@@H]1CN2CCC1CC2` [Example 36, (S)-quinuclidin-3-yl((R)-5-(4-isopropoxy-2-methylphenyl)-2,2-dimethyl-2,3-dihydro-1H-inden-1-yl)carbamate]: the pIC50 is 9.89 in data set [1] and 9.15 in data set [2] (Homo sapiens, Jurkat, 72 h). For the same compound, the Kp at 4 h in data set [3] came to 3.65. Moreover, the concentration at 4 h turned out to be 6650 ng/g in data set [3] (setting [4]) and 1830 ng/mL in data set [3] (setting [5]).
For `CCOc1ccc(-c2cc3c(cc2F)[C@H](NC(=O)O[C@@H]2CN4CCC2CC4)C(C)(C)C3)cc1Cl` [Example 86, (S)-quinuclidin-3-yl((R)-5-(3-chloro-4-ethoxyphenyl)-6-fluoro-2,2-dimethyl-2,3-dihydro-1H-inden-1-yl)carbamate], in that order: 9.12, 7.34, 5.65, 4790 ng/g and 852 ng/mL.

The pIC50 is the negative decadic logarithm of the IC50, by convention in mol/L.
